From patent US11369593B2 (Texas Tech University System, priority 2017, dated 2022)

Test system: PC12 cells
Assay: Etoposide-induced apoptosis in PC12 cells, cell viability
Type: cell-based
Conditions: Rattus norvegicus, PC-12, etoposide-induced apoptosis, PC12 cells; for viability at 0.1 µM: 0.1 μM compound, vehicle 52.1 ± 7.32; for viability at 0.3 µM: 0.3 μM compound; for viability at 1 µM: 1 μM compound, read-out: % Viability 1 μM; for viability at 3 µM: 3 μM compound, read-out: % Viability 3 μM; for viability at 10 µM: 10 μM compound, read-out: % Viability 10 μM; for viability at 30 µM: 30 μM compound, read-out: % Viability 30 μM

Structure (SMILES)	viability at 0.1 µM [%]	viability at 0.3 µM [%]	viability at 1 µM [%]	viability at 3 µM [%]	viability at 10 µM [%]	viability at 30 µM [%]
CCOC(=O)Nc1ccc(NCc2ccccc2)nc1N [AM-2-3, Ethyl (2-amino-6-(benzylamino)pyridin-3-yl)carbamate]	83.2 ± 21.9	87.5 ± 1.65	93.5 ± 5.31	78.6 ± 10.8	92.2 ± 3.97	88.8 ± 5.02
CCOC(=O)Nc1ccc(NCc2ccc(OC)cc2)nc1N [AM-4-3, Ethyl (2-amino-6-((4-methoxybenzyl)amino)pyridin-3-yl)carbamate]	86.8 ± 3.14	81.4 ± 13	71.8 ± 25.7	79.7 ± 10.6	90 ± 16.3	106 ± 13.3
CCOC(=O)Nc1ccc(NCc2ccc3ccccc3c2)nc1N [AM-5-3, Ethyl (2-amino-6-((naphthalen-2-ylmethyl)amino)pyridin-3-yl)carbamate]	70.5 ± 24.2	76.9 ± 20.8	81.7 ± 12.6	57.6 ± 6.35	65.1 ± 22.6	103 ± 1.31
CCOC(=O)Nc1ccc(NCc2ccc(SC(F)(F)F)cc2)nc1N [AM-8-3, Ethyl (2-amino-6-((4-((trifluoromethyl)thio)benzyl)amino)pyridin-3-yl)carbamate]	69 ± 9.99	92.6 ± 9.23	82.3 ± 7.02	79.2 ± 23.6	89.1 ± 2.16	110 ± 15.3
CCOC(=O)Nc1ccc(NCc2ccc(-c3cccs3)cc2)nc1N [AM-11-3, Ethyl (2-amino-6-((4-(thiophen-2-yl)benzyl)amino)pyridin-3-yl)carbamate]	64.1 ± 16.6	77.1 ± 25.2	89.8 ± 30.1	76.1 ± 12.8	89 ± 29.1	35.3 ± 5.69
CCOC(=O)Nc1ccc(NCc2ccc(C(F)(F)F)cc2)nc1 [AM-15-3, Ethyl (6-((4-(trifluoromethyl)benzyl)amino)pyridin-3-yl)carbamate]	59.7 ± 6.74	54.1 ± 12.7	59 ± 12.9	64 ± 7.87	66.4 ± 4.11	52.9 ± 8.69
CCOC(=O)Nc1ccc(NCc2ccc(OC(F)(F)F)cc2)nc1N [JG-33-4, Ethyl (2-amino-6-((4-(trifluoromethoxy)benzyl)amino)pyridin-3-yl)carbamate]	71.3 ± 16.1	81.6 ± 10.9	79.8 ± 12.8	95.3 ± 14.6	88.9 ± 12.6	82.4 ± 12.6
CCOC(=O)Nc1ccc(NCc2ccccc2C(F)(F)F)nc1N [JG-34-4, Ethyl (2-amino-6-((2-(trifluoromethyl)benzyl)amino)pyridin-3-yl)carbamate]	74.6 ± 2.18	72.4 ± 16.4	95.1 ± 10.3	91.5 ± 12.9	95.4 ± 19.3	77.7 ± 6.86
Nc1nc(NCc2ccccc2C(F)(F)F)ccc1NC(=O)OCC(Cl)(Cl)Cl [JG-35-4, 2,2,2-trichloroethyl (2-amino-6-((2-(trifluoromethyl)benzyl)amino)pyridin-3-yl)carbamate]			92.2 ± 37.2	108 ± 7.32	93.2 ± 21.6	71.6 ± 20.8
CCOC(=O)Nc1ccc(NCCc2ccccc2)nc1N [JG-36-4, Ethyl (2-amino-6-(phenethylamino)pyridin-3-yl)carbamate]	52.1 ± 11.5	56.9 ± 12	69.2 ± 7.1	50 ± 9.09	59.6 ± 9.05	60.5 ± 5.82
CCOC(=O)Nc1ccc(NCc2cc(F)cc(C(F)(F)F)c2)nc1N [JG-38-4, Ethyl (2-amino-6-((3-fluoro-5-(trifluoromethyl)benzyl)amino)pyridin-3-yl)carbamate]	69 ± 13.6	64.7 ± 12.5	69.7 ± 14.9	72.9 ± 13.2	90.1 ± 15.1	78.2 ± 12.5
CCOC(=O)Nc1ccc(N2CCOCC2)nc1N [JG-41-4, Ethyl (2-amino-6-morpholinopyridin-3-yl)carbamate]			85.8 ± 15.5	88.7 ± 13.5	78.9 ± 14.3	63.9 ± 12.4
Cc1ccc(OC(=O)Nc2ccc(NCc3ccc(F)cc3)cc2N)cc1 [JG-48-6, p-tolyl (2-amino-4-((4-fluorobenzyl)amino)phenyl)carbamate]			70 ± 16.1	91.6 ± 11	83.7 ± 2.26	67.5 ± 10.2
CC(C)(C)OC(=O)Nc1ccc(NCc2ccc(F)cc2)nc1N [NK-13-1, tert-butyl 6-(4-fluorobenzylamino)-2-aminopyridin-3-ylcarbamate]	53.5 ± 9.17	47.6 ± 3.19	57.2 ± 13.6	42.2 ± 6.03	68.1 ± 21.6	64.4 ± 12.8
CCOC(=O)Nc1ccc(NCc2ccc(F)cc2)nc1 [NK-31-3]			109 ± 35.9	110 ± 19.4	101 ± 15.9	69.3 ± 14.9
CCCCCCOC(=O)Nc1ccc(NCc2ccc(F)cc2)cc1N [NK-34-2, Hexyl (2-amino-4-((4-fluorobenzyl)amino)phenyl)carbamate]	63 ± 11.8	61 ± 5.7	65.8 ± 6.14	60.1 ± 11.4	72.1 ± 13.4	73.2 ± 4.74
Nc1nc(NCc2ccc(F)cc2)ccc1NC(=O)Oc1ccccc1 [NK-41-1, Phenyl (2-amino-6-((4-fluorobenzyl)amino)pyridin-3-yl)carbamate]	57.5 ± 3.62	53.4 ± 0.8	58.1 ± 2.08	59 ± 6.87	68.9 ± 7.71	70.3 ± 10.6
Nc1nc(NCc2ccc(F)cc2)ccc1NC(=O)OCC1c2ccccc2-c2ccccc21 [NK-43-1, (9H-fluoren-9-yl)methyl (2-amino-6-((4-fluorobenzyl)amino)pyridin-3-yl)carbamate]	67.5 ± 6.34	63.9 ± 6.2	69 ± 10.3	56.4 ± 8.99	66.7 ± 5.97	49.7 ± 1.76
C#CCOC(=O)Nc1ccc(NCc2ccc(F)cc2)nc1N [NK-45-1, Prop-2-yn-1-yl (2-amino-6-((4-fluorobenzyl)amino)pyridin-3-yl)carbamate]	60.4 ± 1.29	57.5 ± 3.95	64.9 ± 11.7	61.9 ± 9.82	65.4 ± 10.7	64.8 ± 3.9
Nc1nc(NCc2ccc(F)cc2)ccc1NC(=O)OCC(Cl)(Cl)Cl [NK-46-1, 2,2,2-trichloroethyl (2-amino-6-((4-fluorobenzyl)amino)pyridin-3-yl)carbamate]	74.1 ± 9.21	108 ± 12.7	94.9 ± 8.18	77.2 ± 8.19	83.9 ± 18	113 ± 3.53
CCOC(=O)Nc1ccc(NC(C)c2ccccc2)nc1N (stereo not shown) [NK-52-3, Ethyl (2-amino-6-((1-phenylethyl)amino)pyridin-3-yl)carbamate]	50 ± 1.04	56 ± 4.21	56.7 ± 5.69	66.2 ± 4.77	53.2 ± 2.3	24 ± 6.78
